What was measured:
[1] = target: Transcription factor p65 (Homo sapiens) (UniProt Q04206); experiment: Inhibition of NF-kappa-B p65 subunit binding to DNA response element in human MCF7 cell nuclear lysates at 3 uM after 24 hrs relative to control
PC-3 = experiment: Cytotoxicity against human PC3 cells assessed as growth inhibition after 48 hrs by sulphorhodamine B assay; format: functional, cell-based; conditions: PC-3, 48 h
MCF7 [2] = experiment: Cytotoxicity against human MCF7 cells assessed as growth inhibition after 48 hrs by sulphorhodamine B assay; format: functional, cell-based; conditions: MCF7, 48 h
MCF7 [3] = experiment: Cell cycle arrest in human MCF7 cells assessed as accumulation at subG1 phase at 1.5 uM after 24 hrs by propidium iodide staining-based flow cytometric analysis (reference value: 4.8%); format: functional
[4] = target: Transcription factor p65 (Homo sapiens) (UniProt Q04206); experiment: Inhibition of NF-kappa-B p65 subunit binding to DNA response element in human MCF7 cell nuclear lysates at 2 uM after 24 hrs relative to control
MCF7 [5] = experiment: Cell cycle arrest in human MCF7 cells assessed as accumulation at subG1 phase at 2 uM after 24 hrs by propidium iodide staining-based flow cytometric analysis (reference value: 4.8%); format: functional
A549 = experiment: Cytotoxicity against human A549 cells assessed as growth inhibition after 48 hrs by sulphorhodamine B assay; format: functional, cell-based; conditions: A549, 48 h
MCF7 [6] = experiment: Cell cycle arrest in human MCF7 cells assessed as accumulation at subG1 phase after 24 hrs by propidium iodide staining-based flow cytometric analysis; format: functional
[7] = target: Transcription factor p65 (Homo sapiens) (UniProt Q04206); experiment: Inhibition of NF-kappa-B p65 subunit binding to DNA response element in human MCF7 cell nuclear lysates at 1.5 uM after 24 hrs relative to control
[8] = target: Transcription factor p65 (Homo sapiens) (UniProt Q04206); experiment: Inhibition of NF-kappa-B p65 subunit binding to DNA response element in human MCF7 cell nuclear lysates after 24 hrs
HCT-116 = experiment: Cytotoxicity against human HCT116 cells assessed as growth inhibition after 48 hrs by sulphorhodamine B assay; format: functional, cell-based; conditions: HCT-116, 48 h
MCF7 [9] = experiment: Cell cycle arrest in human MCF7 cells assessed as accumulation at subG1 phase at 1 uM after 24 hrs by propidium iodide staining-based flow cytometric analysis (reference value: 4.8%); format: functional
MCF7 [10] = experiment: Cell cycle arrest in human MCF7 cells assessed as accumulation at subG1 phase at 5 uM after 24 hrs by propidium iodide staining-based flow cytometric analysis (reference value: 4.8%); format: functional
[11] = target: Transcription factor p65 (Homo sapiens) (UniProt Q04206); experiment: Inhibition of NF-kappa-B p65 subunit binding to DNA response element in human MCF7 cell nuclear lysates at 1 uM after 24 hrs relative to control

Sequence of Transcription factor p65 (Homo sapiens) (Q04206 whole entry): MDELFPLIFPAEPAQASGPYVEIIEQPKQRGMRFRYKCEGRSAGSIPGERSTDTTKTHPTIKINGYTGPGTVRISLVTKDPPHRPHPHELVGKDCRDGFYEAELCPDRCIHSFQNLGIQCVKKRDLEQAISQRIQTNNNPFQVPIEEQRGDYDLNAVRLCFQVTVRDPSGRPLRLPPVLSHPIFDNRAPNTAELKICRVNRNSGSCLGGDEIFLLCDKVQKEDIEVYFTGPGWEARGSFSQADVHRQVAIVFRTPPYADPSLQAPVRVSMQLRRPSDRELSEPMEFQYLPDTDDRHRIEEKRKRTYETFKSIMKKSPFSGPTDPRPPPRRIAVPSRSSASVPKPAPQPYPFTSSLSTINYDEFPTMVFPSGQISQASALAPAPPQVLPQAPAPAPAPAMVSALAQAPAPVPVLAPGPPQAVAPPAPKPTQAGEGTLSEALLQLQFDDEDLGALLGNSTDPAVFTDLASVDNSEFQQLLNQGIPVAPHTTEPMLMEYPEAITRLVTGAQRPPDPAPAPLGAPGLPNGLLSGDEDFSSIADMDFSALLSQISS

`CC1=C2[C@H]3OC(=O)[C@@H](CSc4ccc(Cl)cc4)[C@@H]3CC[C@@]2(C)C=CC1=O` gave an inhibition [1] of 62%, an IC50 (PC-3) of 2.1 µM and an IC50 (MCF7 [2]) of 1 µM. It also gave an Activity (MCF7 [3]) of 45.1%, an inhibition [4] of 49% and an Activity (MCF7 [5]) of 46.6%. The IC50 (A549) was 2.7 µM, the Activity (MCF7 [6]) was “Dose-dependent effect” and the inhibition [7] was 36%. For the same molecule, the inhibition [8] was “Dose-dependent effect” and the IC50 (HCT-116) was 0.8 µM.
With `CC1=C2[C@H]3OC(=O)[C@@H](CSc4ccc(Br)cc4)[C@@H]3CC[C@@]2(C)C=CC1=O` the IC50 (PC-3) was 1.5 µM, the IC50 (MCF7 [2]) was 0.6 µM and the Activity (MCF7 [3]) was 44.5%. The inhibition [4] was 57%, the Activity (MCF7 [9]) was 36.8% and the IC50 (A549) was 2.4 µM. For the same molecule, the Activity (MCF7 [6]) was “Dose-dependent effect”, the inhibition [7] was 45% and the inhibition [8] was “Dose-dependent effect”. The IC50 (HCT-116) was 1.2 µM.
Work on `CC1=C2[C@H]3OC(=O)[C@@H](CSc4ccccc4Br)[C@@H]3CC[C@@]2(C)C=CC1=O` yielded an IC50 (PC-3) of 2.6 µM, an IC50 (MCF7 [2]) of 2.3 µM and an IC50 (A549) of 2.8 µM. For the same molecule, the IC50 (HCT-116) was 1.1 µM.
With `CC1=C2[C@H]3OC(=O)[C@@H](CSc4ccccc4)[C@@H]3CC[C@@]2(C)C=CC1=O` the IC50 (PC-3) was 25.9 µM, the IC50 (MCF7 [2]) was 25.2 µM and the IC50 (A549) was 19.8 µM. For the same molecule, the IC50 (HCT-116) was 19.1 µM.
For `C=C1C(=O)O[C@@H]2C3=C(C)C(=O)C=C[C@]3(C)CC[C@@H]12`, the IC50 (PC-3) was 32.7 µM, the IC50 (MCF7 [2]) was 25.2 µM and the IC50 (A549) was over 50 µM. For the same molecule, the IC50 (HCT-116) was 31.5 µM.
`CC1=C2[C@H]3OC(=O)[C@@H](CSc4ccccc4F)[C@@H]3CC[C@@]2(C)C=CC1=O` gave an IC50 (PC-3) of 2 µM, an IC50 (MCF7 [2]) of 1.2 µM and an IC50 (A549) of 1.8 µM. It also gave an IC50 (HCT-116) of 0.9 µM.
In the case of `CC1=C2[C@H]3OC(=O)[C@@H](CSc4ccc(F)c(F)c4)[C@@H]3CC[C@@]2(C)C=CC1=O`, the IC50 (PC-3) is reported as 2.9 µM, the IC50 (MCF7 [2]) is reported as 1 µM and the IC50 (A549) is reported as 5.9 µM. The IC50 (HCT-116) was 0.7 µM.
For `O=c1[nH]cc(F)c(=O)[nH]1` [FLUOROURACIL], the IC50 (HCT-116) was 4.5 µM.
Work on `CC1=C2[C@H]3OC(=O)[C@@H](CSc4ncc[nH]4)[C@@H]3CC[C@@]2(C)C=CC1=O` yielded an IC50 (PC-3) of 4.7 µM, an IC50 (MCF7 [2]) of 2.4 µM and an IC50 (A549) of 8.8 µM. It also gave an IC50 (HCT-116) of 0.8 µM.
`CC1=C2[C@H]3OC(=O)[C@@H](CSc4ccccc4C)[C@@H]3CC[C@@]2(C)C=CC1=O` showed an IC50 (PC-3) of 20.7 µM, an IC50 (MCF7 [2]) of 20.9 µM and an IC50 (A549) of 0.9 µM. For the same molecule, the IC50 (HCT-116) was 21.5 µM.
With `CC1=C2[C@H]3OC(=O)[C@@H](CSC4CCCCC4)[C@@H]3CC[C@@]2(C)C=CC1=O` the IC50 (PC-3) was over 50 µM, the IC50 (MCF7 [2]) was over 50 µM and the IC50 (A549) was 45.2 µM. The IC50 (HCT-116) was over 50 µM.
`CC1=C2[C@H]3OC(=O)[C@@H](CSc4ccc(Br)cc4C)[C@@H]3CC[C@@]2(C)C=CC1=O` gave an IC50 (PC-3) of 8.5 µM, an IC50 (MCF7 [2]) of 8.5 µM and an IC50 (A549) of 10 µM. The IC50 (HCT-116) was 1.4 µM.
With `COc1ccc(SC[C@@H]2C(=O)O[C@@H]3C4=C(C)C(=O)C=C[C@]4(C)CC[C@@H]23)cc1` the IC50 (PC-3) was 13.1 µM, the IC50 (MCF7 [2]) was 21.4 µM and the IC50 (A549) was 8.9 µM. For the same molecule, the IC50 (HCT-116) was 24.9 µM.
Work on `CC[C@@]1(O)C(=O)OCc2c1cc1n(c2=O)Cc2cc3ccccc3nc2-1` [CAMPTOTHECIN] yielded an Activity (MCF7 [10]) of 52.4%.
For `CC1=C2[C@H]3OC(=O)[C@@H](CSc4ccc(C)cc4)[C@@H]3CC[C@@]2(C)C=CC1=O`, the IC50 (PC-3) was 5.7 µM, the IC50 (MCF7 [2]) was 6 µM and the IC50 (A549) was 7.4 µM. For the same molecule, the IC50 (HCT-116) was 12.1 µM.
`CC1=C2[C@H]3OC(=O)[C@@H](CSc4ccccc4N)[C@@H]3CC[C@@]2(C)C=CC1=O` showed an IC50 (PC-3) of 10.8 µM, an IC50 (MCF7 [2]) of 7.8 µM and an IC50 (A549) of 30.7 µM. The IC50 (HCT-116) was 13 µM.
With `CC1=C2[C@H]3OC(=O)[C@@H](CSc4nc5ccccc5n4C)[C@@H]3CC[C@@]2(C)C=CC1=O` the IC50 (PC-3) was 34.9 µM, the IC50 (MCF7 [2]) was 39.2 µM and the IC50 (A549) was 42 µM. For the same molecule, the IC50 (HCT-116) was 20.7 µM.
In the case of `CC1=C2[C@H]3OC(=O)[C@@H](CSc4ccc(C)c(Br)c4)[C@@H]3CC[C@@]2(C)C=CC1=O`, the IC50 (PC-3) is reported as 31 µM, the IC50 (MCF7 [2]) is reported as 20.2 µM and the IC50 (A549) is reported as 4.1 µM. It also gave an IC50 (HCT-116) of 0.8 µM.
Molecule `CC1=C2[C@H]3OC(=O)[C@@H](CSc4ccccc4Cl)[C@@H]3CC[C@@]2(C)C=CC1=O` has an IC50 (PC-3) of 9.1 µM, an IC50 (MCF7 [2]) of 23.2 µM and an IC50 (A549) of 6.6 µM. It also gave an IC50 (HCT-116) of 16.6 µM.
Work on `CC1=C2[C@H]3OC(=O)[C@@H](CSc4nc5ccccc5c(=O)[nH]4)[C@@H]3CC[C@@]2(C)C=CC1=O` yielded an IC50 (PC-3) of 31.1 µM, an IC50 (MCF7 [2]) of 17.2 µM and an IC50 (A549) of 18.3 µM. The IC50 (HCT-116) was 20.3 µM.
Work on `CC1=C2[C@H]3OC(=O)[C@@H](CSc4ccccn4)[C@@H]3CC[C@@]2(C)C=CC1=O` yielded an IC50 (PC-3) of 1.9 µM, an IC50 (MCF7 [2]) of 0.4 µM and an inhibition [11] of 27%. For the same molecule, the Activity (MCF7 [3]) was 44.6%, the Activity (MCF7 [9]) was 38% and the IC50 (A549) was 4.1 µM. For the same molecule, the inhibition [7] was 43%, the inhibition [8] was “Dose-dependent effect” and the IC50 (HCT-116) was 0.5 µM.
With `CC1=C2[C@H]3OC(=O)[C@@H](C)[C@@H]3CC[C@@]2(C)C=CC1=O` [SANTONIN] the IC50 (PC-3) was over 50 µM, the IC50 (MCF7 [2]) was over 50 µM and the IC50 (A549) was over 50 µM. The IC50 (HCT-116) was over 50 µM.
`COc1ccccc1SC[C@@H]1C(=O)O[C@@H]2C3=C(C)C(=O)C=C[C@]3(C)CC[C@@H]12` gave an IC50 (PC-3) of 40.7 µM, an IC50 (MCF7 [2]) of 36.1 µM and an IC50 (A549) of over 50 µM. It also gave an IC50 (HCT-116) of 45.9 µM.
In the case of `CC1=C2[C@H]3OC(=O)[C@@H](CSc4ccc(F)cc4)[C@@H]3CC[C@@]2(C)C=CC1=O`, the IC50 (PC-3) is reported as 4.5 µM, the IC50 (MCF7 [2]) is reported as 7.3 µM and the IC50 (A549) is reported as 1.1 µM. The IC50 (HCT-116) was 0.8 µM.
Work on `CCSC[C@@H]1C(=O)O[C@@H]2C3=C(C)C(=O)C=C[C@]3(C)CC[C@@H]12` yielded an IC50 (PC-3) of 9.9 µM, an IC50 (MCF7 [2]) of 23.5 µM and an IC50 (A549) of 12.2 µM. The IC50 (HCT-116) was 16.5 µM.

— ChEMBL document CHEMBL3612029, “Design, synthesis and anticancer activity of Michael-type thiol adducts of α-santonin analogue with exocyclic methylene” (Eur J Med Chem, 2015)
